Tests used:
[1] = tested on: Mouse intestinal CCK-producing cell line STC-1; assay: Confirmation test of CCK secretion-stimulating activity (CCK in supernatant, enzyme immunoassay); type: cell-based; design: key to CCK secretion-promoting activity Significant difference from vehicle Group 3 / CCK secretion-promoting activity Significant difference from vehicle Group 4 / CCK secretion-promoting activity Significant difference from vehicle Group 1 / CCK secretion-promoting activity Significant difference from vehicle Group 5: *: A significant difference (P < 0.05) was found; —: No significant difference was found; conditions: for CCK secretion-promoting activity Significant difference from vehicle Group 1: experimental group 1; for CCK secretion-promoting activity Significant difference from vehicle Group 3: experimental group 3; for CCK secretion-promoting activity Significant difference from vehicle Group 4: experimental group 4; for CCK secretion-stimulating activity (in words): single test material
Description: As a condition for maximizing the secretion amount of CCK in a cell test system, 70 mM KCl (positive control) causing hormone release by depolarization was prepared.
Since the number of materials that can be tested at once is restricted, the test materials were divided into five groups as shown in Table 1. In order to solve the discontinuity between experimental groups, every group included trans,trans-2,4-decadienal. Each test material was tested three times, and the average value of the results was calculated.
The test materials were each dissolved in ethanol, and each solution was diluted with Hepes buffer (140 mM NaCl, 4.5 mM KCl, 20 mM Hepes, 1.2 mM CaCl2, 1.2 mM MgCl2, and 10 mM D-glucose, pH 7.4) to give a 0.1 vol % ethanol solution, which was used as the evaluation solution.
Mouse intestinal CCK-producing cell line STC-1 was cultured in a 48-well plate for two to three days until subconfluent in a Dulbecco's modified Eagle's medium containing 10% bovine fetal serum at 37° C. in the presence of 5% CO2. After the wells were washed with Hepes buffer, 100 μL of the evaluation solution containing 100 μM of a test material was added to a well, followed by incubation at 37° C. for 60 minutes. The supernatant was collected and was centrifuged (800×g, 5 min, 4° C.) to precipitate the exfoliated cells. The resulting supernatant (80 μL) was collected and was cryopreserved. The concentration of CCK in the supernatant was measured with a commercially available enzyme immunoassay kit (manufactured by Phoenix Pharmaceuticals, Inc.).
In order to investigate the change in the secretion amount of CCK by addition of a test material to the cells in a general condition, a value obtained by subtracting the measured value of the vehicle from the measured value of a sample was used as the true value, and the score of the CCK secretion-stimulating activity was determined by dividing the true value by the value of 70 mM KCl as a control. The variance was analyzed for each experimental group. The difference in variance between an experimental group and the vehicle was examined for determining whether there was a significant difference (P<0.05). […]

[2] = swallowing; cited from earlier work
[3] = Table 2B, 100 μM test material, 60 minutes, STC-1, (sample minus vehicle) divided by value of 70 mM KCl control
[4] = Table 2A, 100 μM test material, 60 minutes, STC-1, (sample minus vehicle) divided by value of 70 mM KCl control
[5] = Table 3, single ingredient (100 μM) or control, relative to 70 mM KCl

For `CCCCCCCCCCCC(=O)O` [compound 26, lauric acid], which “CCK secretion-promoting activity Score” value [1, 3] is on record?
Its value is −0.225.

Which “CCK secretion-promoting activity Score” value [1, 4] does the source give for `[Cl-].[K+]` [70 mM KCl, KCl] here?
Its value is 1.

And the “CCK secretion-promoting activity Score” value [1, 3]?
The value was 1.

And the “CCK secretion-promoting activity Score” value [1, 5]?
Its value is 1.

With `CCCCCCCCCC` [compound 28, decane] as the compound, how does the “CCK secretion-promoting activity Score” value [1, 3] read?
Its value is −0.224.

For `CCCC/C=C/C=C/C=O` [Example 3, trans,trans-2,4-nonadienal], which “CCK secretion-promoting activity Score” value [1, 4] is on record?
The value was 0.975.

What about the “CCK secretion-promoting activity Significant difference from vehicle Group 1” value ([1]; Table 2A, 100 μM) of the same compound?
Its value is “* (A significant difference (P < 0.05) was found)”.

With `C=CCCCCCCCCC=O` [compound 14, trans-10-undecenal] as the compound, how does the “CCK secretion-promoting activity Score” value [1, 3] read?
Its value is −0.458.

What about the “CCK secretion-promoting activity Significant difference from vehicle Group 3” value ([1]; Table 2B, 100 μM) of the same compound?
Its value is “—”.

With `CC/C=C\CCCCC=O` [compound 12, cis-6-nonenal] as the compound, how does the “CCK secretion-promoting activity Score” value [1, 3] read?
Its value is −0.648.

And the “CCK secretion-promoting activity Significant difference from vehicle Group 3” value ([1]; Table 2B, 100 μM)?
Its value is “—”.

For `CCCCCCCCCC=O` [compound 4, decanal], which “CCK secretion-promoting activity Score” value [1, 3] is on record?
The value was 0.042.

Which “CCK secretion-promoting activity Score” value [1, 3] does the source give for `CC/C=C\CCCCCC=O` [compound 13, cis-7-decenal] here?
The value was 0.274.

For `CC/C=C\CCC=O` [Comparative Example 11, cis-4-heptenal], which “CCK secretion-promoting activity Score” value [1, 3] is on record?
Its value is −0.001.

For `CCCC/C=C/C=O` [Example 7, trans-2-heptenal], which “CCK secretion-promoting activity Score” value [1, 4] is on record?
The value was 0.624.

And the “CCK secretion-promoting activity Significant difference from vehicle Group 1” value ([1]; Table 2A, 100 μM)?
The value was “* (A significant difference (P < 0.05) was found)”.

What does the source list for `CCCCCCCCC=O` [compound 3, nonanal]?
CCK secretion-promoting activity Score [1, 3]: −0.003; CCK secretion-promoting activity Significant difference from vehicle Group 1 ([1]; Table 2B, 100 μM): —

Which “CCK secretion-promoting activity Score” value [1, 4] does the source give for `CCCCCCC/C=C/C=C/C=O` [Example 5, trans,trans-2,4-dodecadienal] here?
The value was 0.720.

What does the source list for `C/C=C/C=O.C/C=C/C=O` [Example 6, trans-2-butenal (crotonaldehyde)]?
CCK secretion-promoting activity Score [1, 4]: 0.644; CCK secretion-promoting activity Significant difference from vehicle Group 1 ([1]; Table 2A, 100 μM): * (A significant difference (P < 0.05) was found)

Which “CCK secretion-promoting activity Score” value [1, 3] does the source give for `CCCCCCC/C=C/C=O` [compound 8, trans-2-decenal] here?
Its value is 0.046.

With `CCCCCCCCCCCCC(=O)O` [compound 27, n-tridecanoic acid] as the compound, how does the “CCK secretion-promoting activity Score” value [1, 3] read?
The value was −0.234.

For `CCCCC/C=C\CCC=O` [Example 11, cis-4-decenal], which “CCK secretion-promoting activity Score” value [1, 4] is on record?
Its value is 0.377.

What about the “CCK secretion-promoting activity Significant difference from vehicle Group 4” value ([1]; Table 2A, 100 μM) of the same compound?
Its value is “—”.

With `CCCCCCCCCCCCCO` [compound 21, n-tridecyl alcohol] as the compound, how does the “CCK secretion-promoting activity Score” value [1, 3] read?
The value was −0.225.

Which “CCK secretion-promoting activity Score” value [1, 3] does the source give for `CCCCCCCC(=O)O` [compound 24, n-octanoic acid] here?
The value was −0.140.

For `C/C=C\CCCCCCC` [compound 29, cis-2-decene], which “CCK secretion-promoting activity Score” value [1, 3] is on record?
Its value is −0.208.

Which results are given for `CCCC=O.CCCC=O` [Comparative Example 1, butanal (butyraldehyde)]?
CCK secretion-promoting activity Score [1, 3]: 0.017; CCK secretion-promoting activity Significant difference from vehicle Group 1 ([1]; Table 2B, 100 μM): —

Which results are given for `CCCCCC/C=C/C=O` [Example 9, trans-2-nonenal]?
CCK secretion-promoting activity Score [1, 4]: 0.491; CCK secretion-promoting activity Significant difference from vehicle Group 3 ([1]; Table 2A, 100 μM): —

Which “CCK secretion-promoting activity Score” value [1, 3] does the source give for `CCCCCCCC/C=C/C=O` [compound 9, trans-2-undecenal] here?
The value was −0.137.

And the “CCK secretion-promoting activity Significant difference from vehicle Group 3” value ([1]; Table 2B, 100 μM)?
The value was “—”.

For `CCCCCCCCCC(=O)O` [compound 25, decanoic acid], which “CCK secretion-promoting activity Score” value [1, 3] is on record?
The value was −0.207.

What does the source list for `CCCCC/C=C\CCCO` [compound 17, cis-4-decen-1-ol]?
CCK secretion-promoting activity Score [1, 3]: −0.171; CCK secretion-promoting activity Significant difference from vehicle Group 4 ([1]; Table 2B, 100 μM): —

Which “CCK secretion-promoting activity Score” value [1, 3] does the source give for `CCCCCC/C=C/C(C)=O` [compound 22, trans-3-decen-2-one] here?
Its value is 0.169.

For `CCCCCCCCCCCC=O` [compound 6, dodecanal], which “CCK secretion-promoting activity Score” value [1, 3] is on record?
Its value is −0.093.

With `CCCCCCCCCCC=O` [compound 5, undecanal] as the compound, how does the “CCK secretion-promoting activity Score” value [1, 3] read?
The value was 0.189.

Which “CCK secretion-promoting activity Score” value [1, 3] does the source give for `CCCCCCCCCCO` [compound 19, n-decyl alcohol] here?
The value was 0.070.

Which “CCK secretion-promoting activity Score” value [1, 4] does the source give for `CC/C=C/C=C/C=O` [Example 2, trans,trans-2,4-heptadienal] here?
The value was 0.885.

And the “CCK secretion-promoting activity Significant difference from vehicle Group 1” value ([1]; Table 2A, 100 μM)?
The value was “* (A significant difference (P < 0.05) was found)”.

Which “CCK secretion-promoting activity Score” value [1, 3] does the source give for `CCCCCCCCCCCCC=O` [compound 7, tridecanal] here?
The value was 0.049.

What does the source list for `CCCCCCCCC/C=C/C=O` [compound 10, trans-2-dodecenal]?
CCK secretion-promoting activity Score [1, 3]: −0.319; CCK secretion-promoting activity Significant difference from vehicle Group 3 ([1]; Table 2B, 100 μM): —

Which results are given for `C=CCO` [compound 15, 2-propen-1-ol]?
CCK secretion-promoting activity Score [1, 3]: 0.557; CCK secretion-promoting activity Significant difference from vehicle Group 4 ([1]; Table 2B, 100 μM): —

Which results are given for `CCCCCCCC=O` [compound 2, octanal]?
CCK secretion-promoting activity Score [1, 3]: −0.004; CCK secretion-promoting activity Significant difference from vehicle Group 3 ([1]; Table 2B, 100 μM): —

Which results are given for `CCCCC/C=C/C=O` [Example 8, trans-2-octenal]?
CCK secretion-promoting activity Score [1, 4]: 0.698; CCK secretion-promoting activity Significant difference from vehicle Group 4 ([1]; Table 2A, 100 μM): * (A significant difference (P < 0.05) was found)

For `CCCCC/C=C/C=C/C=O` [Example 4, trans,trans-2,4-decadienal], which “CCK secretion-promoting activity Score” value [1, 4] is on record?
The value was 1.088.

What about the “CCK secretion-promoting activity Significant difference from vehicle Group 1” value ([1]; Table 2A, 100 μM) of the same compound?
Its value is “* (A significant difference (P < 0.05) was found)”.

And the “CCK secretion-promoting activity Significant difference from vehicle Group 3” value ([1]; Table 2A, 100 μM)?
The value was “* (A significant difference (P < 0.05) was found)”.

What about the “CCK secretion-promoting activity Significant difference from vehicle Group 4” value ([1]; Table 2A, 100 μM) of the same compound?
The value was “* (A significant difference (P < 0.05) was found)”.

What about the “CCK secretion-promoting activity Significant difference from vehicle” value ([1]; Table 3, single ingredient (100 μM)) of the same compound?
The value was “* (A significant difference (P < 0.05) was found)”.

And the “CCK secretion-promoting activity Score” value [1, 5]?
Its value is 1.088.

What about the “CCK secretion-stimulating activity (in words)” value ([1]; STC-1) of the same compound?
Its value is “the highest”.

What does the source list for trans,trans-1,9-decadiene [compound 30]?
CCK secretion-promoting activity Score [1, 3]: −0.211; CCK secretion-promoting activity Significant difference from vehicle Group 5 ([1]; Table 2B, experimental group 5, 100 μM): —

For `CCCCC/C=C/CO` [compound 16, trans-2-octen-1-ol], which “CCK secretion-promoting activity Score” value [1, 3] is on record?
The value was 0.321.

And the “CCK secretion-promoting activity Significant difference from vehicle Group 4” value ([1]; Table 2B, 100 μM)?
The value was “—”.

With `CCCCC/C=C/C(=O)O` [compound 23, trans-2-octenoic acid] as the compound, how does the “CCK secretion-promoting activity Score” value [1, 3] read?
The value was 0.146.

What about the “CCK secretion-promoting activity Significant difference from vehicle Group 4” value ([1]; Table 2B, 100 μM) of the same compound?
Its value is “—”.

For `CCCCCCCCO` [compound 18, 1-octanol], which “CCK secretion-promoting activity Score” value [1, 3] is on record?
Its value is −0.134.

What does the source list for `C=CC=O` [propenal]?
CCK secretion-stimulating activity (in words) ([1]; STC-1): has a CCK-secreting activity; GHS class of acute toxicity [2]: class 2

For `CCCCC/C=C/CCC=O` [Example 10, trans-4-decenal], which “CCK secretion-promoting activity Score” value [1, 4] is on record?
Its value is 0.441.

Which results are given for `C/C=C/C=C/C=O` [Example 1, trans,trans-2,4-hexadienal]?
CCK secretion-promoting activity Score [1, 4]: 0.840; CCK secretion-promoting activity Significant difference from vehicle Group 1 ([1]; Table 2A, 100 μM): * (A significant difference (P < 0.05) was found)

For `CCCCCCCCCCCCO` [compound 20, dodecyl alcohol], which “CCK secretion-promoting activity Score” value [1, 3] is on record?
Its value is −0.304.

For `C=CC(=O)O` [Example 12, acrylic acid], which “CCK secretion-promoting activity Score” value [1, 4] is on record?
Its value is 0.957.

What about the “CCK secretion-promoting activity Significant difference from vehicle Group 4” value ([1]; Table 2A, 100 μM) of the same compound?
The value was “* (A significant difference (P < 0.05) was found)”.
